Experimental data from patent US20120064056A1, “DICHLORACETATE IN COMBINATION WITH CLINICALLY HIGH LEVELS OF CARDIOPROTECTIVE OR HEMODYNAMIC DRUGS” (THE GOVERNORS OF THE UNIVERSITY OF ALBERTA TEC Edmonton, priority 2002, published 2012).

Assays:
[1] = test system: isolated rat hearts; assay: Isolated working rat heart, aerobic perfusion: glycolysis and glucose oxidation; design: glycolytic rates (glycolysis) / glucose oxidation rates: unit not given here; settings: normal hearts, aerobic, DCA 2 mM, digoxin 3 nM, diltiazem 0.8 μM, dobutamine 1 μM, metoprolol 1 μM
Protocol: Rat hearts were cannulated for isolated working heart perfusions as described in “An imbalance between glycolysis and glucose oxidation is a possible explanation for the detrimental effects of high levels of fatty acids during aerobic reperfusion of ischemic hearts.”, (J Pharmacol Exp Ther. 264:135 (1993); herein incorporated by reference. In brief, male Sprague-Dawley rats (0.3-0.35 kg) were anesthetized with pentobarbital sodium (60 mg/kg IP) and hearts were quickly excised, the aorta was cannulated and a retrograde perfusion at 37° C. was initiated at a hydrostatic pressure of 60 mm Hg. Hearts were trimmed of excess tissue, and the pulmonary artery and the opening to the left atrium were then cannulated. After 15 min of Langendorff perfusion, hearts were switched to the working mode by clamping the aortic inflow line from the Langendorff reservoir and opening the left atrial inflow line. The perfusate was delivered from an oxygenator into the left atrium at a constant preload pressure of 11 mm Hg. Perfusate was ejected from spontaneously beating hearts into a compliance chamber (containing 1 ml of air) and into the aortic outflow line. The afterload was set at a hydrostatic pressure of 80 mm Hg. All working hearts were perfused with Krebs'-Henseleit solution containing calcium 2.5 mmol/L, glucose 5.5 mmol/L, 3% bovine serum albumin (Fraction V, Boehringer Mannheim), and with 1.2 mmol/L palmitate. Palmitate was bound to the albumin as described previously (Saddik M., et al. J Biol. Chem. 267:3825-3831 (1992)). The perfusate was recirculated, and pH was adjusted to 7.4 by bubbling with a mixture containing 95% O2 and 5% CO2. For the aerobic model hearts, all tested compounds were introduced into the heart 5 minutes into the working mode following Langendorff Perfusion.
Glycolysis and glucose oxidation were measured simultaneously by perfusing hearts with [5-^3H/U-^14C] glucose (Liu H., et al. Am J Physiol. 270:H72-H80 (1996); Taegtmeyer Het al. Am J Cardiol. 80:3A-10A (1997)). The total myocardial ^3H2O production and ^14CO2 production were determined at 10 minute intervals for the entirety of the aerobic period, 60 minutes for normal hearts and 30 minutes for the global ischemia and low flow demand ischemia models. In the global ischemia model, the total myocardial ^3H2O and ^14CO2 production were determined at 20 minute intervals for the 60 minute reperfusion period. In the low flow demand ischemia model, the total myocardial ^3H2O and ^14CO2 production were determined at 10 minute intervals for the 30 minute reperfusion period. Glucose oxidation rates were determined by quantitative measurement of ^14CO2 production as described previously (Barbour R. L., et al. Biochemistr. 1923:6503-6062 (1984)).

[2] = test system: isolated rat hearts subjected to global ischemia; assay: Isolated working rat heart, global ischemia and reperfusion: glycolysis and glucose oxidation; settings: digoxin 3 nM, metoprolol 1 μM
Protocol: Hearts were trimmed of excess tissue, and the pulmonary artery and the opening to the left atrium were then cannulated. After 15 min of Langendorff perfusion, hearts were switched to the working mode by clamping the aortic inflow line from the Langendorff reservoir and opening the left atrial inflow line. The perfusate was delivered from an oxygenator into the left atrium at a constant preload pressure of 11 mm Hg. […] The afterload was set at a hydrostatic pressure of 80 mm Hg. […] Palmitate was bound to the albumin as described previously ([…]., et al. J Biol. Chem. 267:3825-3831 (1992)). […] For the aerobic model hearts, all tested compounds were introduced into the heart 5 minutes into the working mode following Langendorff Perfusion. […] All tested compounds were introduced into the perfusate five minutes prior to reperfusion. […] Am J Physiol. 270:[…]. Am J Cardiol. 80:3A-10A (1997)). […] In the global ischemia model, the total myocardial ^3H2O and ^14CO2 production were determined at 20 minute intervals for the 60 minute reperfusion period. […] L., et al. Biochemistr. 1923:6503-6062 (1984)).

[3] = test system: isolated rat hearts subjected to low flow demand ischemia; assay: Isolated working rat heart, low flow demand ischemia: cardiac function and efficiency; settings: for Aortic Outflow / Cardiac Output / Coronary Flow / HR × PSP / Heart Rate / Peak Systolic Pressure: DCA 2 mM, diltiazem 0.8 μM, metoprolol 1 μM
Protocol: Hearts were trimmed of excess tissue, and the pulmonary artery and the opening to the left atrium were then cannulated. After 15 min of Langendorff perfusion, hearts were switched to the working mode by clamping the aortic inflow line from the Langendorff reservoir and opening the left atrial inflow line. The perfusate was delivered from an oxygenator into the left atrium at a constant preload pressure of 11 mm Hg. […] The afterload was set at a hydrostatic pressure of 80 mm Hg. […] Palmitate was bound to the albumin as described previously ([…]., et al. J Biol. Chem. 267:3825-3831 (1992)). […] For the aerobic model hearts, all tested compounds were introduced into the heart 5 minutes into the working mode following Langendorff Perfusion. Spontaneously beating hearts were used in all perfusions. Heart rate and aortic pressure were measured with a Biopac Systems Inc. blood pressure transducer connected to the aortic outflow line. Cardiac output and aortic flow were measured with Transonic […] ultrasonic flow probes in the preload and afterload lines, respectively. Coronary flow was calculated as the difference between cardiac output and aortic flow. […] Cardiac work was calculated as the product of systolic pressure and cardiac output. Cardiac efficiency was defined as a ratio of cardiac work to MVO2. […] All tested compounds were introduced into the perfusate five minutes into initiation of aerobic perfusion.

[4] = low flow ischemia: aerobic period
[5] = low flow ischemia: ischemic period

COCCc1ccc(OCC(O)CNC(C)C)cc1 (stereo not shown) [Metoprolol, metoprolol]
glucose oxidation rates ([1]; FIG. 1, 3, 5, 7, control 361±43): 651±222 | glycolytic rates (glycolysis) ([1]; FIG. 2, 4, 6, 8, control 3.430±0.604): 4.530±0.876 | glycolytic rates as compared to control, in words ([2]; FIG. 10, FIG. 16, DCA 2 mM): neither DCA, metoprolol or metoprolol with DCA altered glycolytic rates | glucose oxidation rates, in words ([2]; reperfusion period, FIG. 9, FIG. 15, DCA 2 mM): no effect | cardiac work, in words ([3]; low flow demand ischemia, FIG. 24, FIG. 30): no significant changes | oxygen consumption, in words ([3]; low flow demand ischemia, FIG. 25, FIG. 31): no significant changes | peak systolic pressure, effect in words ([3]; low flow demand ischemia, Table 1): no significant increase | heart rate, effect in words ([3]; low flow demand ischemia, Table 1, compared to control): no significant increase | coronary flow (coronary outflow), effect in words ([3]; low flow demand ischemia, Table 2): no significant increase | Aortic Outflow [3, 4]: 25 ± 2 mL/min | Cardiac Output [3, 4]: 47 ± 2 mL/min | Coronary Flow [3, 4]: 22 ± 1 mL/min | HR × PSP [3, 4]: 30 ± 2 beats · min^−1 · mmHg · 10^−2 | Heart Rate [3, 4]: 216 ± 10 beats · min^−1 | Peak Systolic Pressure [3, 4]: 141 ± 7 mmHg | Aortic Outflow [3, 5]: 17 ± 3 mL/min | Cardiac Output [3, 5]: 31 ± 4 mL/min | Coronary Flow [3, 5]: 14 ± 1 mL/min | HR × PSP [3, 5]: 30 ± 2 beats · min^−1 · mmHg · 10^−2 | Heart Rate [3, 5]: 216 ± 10 beats · min^−1 | Peak Systolic Pressure [3, 5]: 141 ± 7 mmHg | cardiac function, in words ([3]; low-flow ischemic period, FIG. 23, FIG. 29): no significant changes
